Data from patent publication US20100298141A1, “SUBSTITUTED PYRIDINE N-OXIDE HERBICIDES” (E. I. DU PONT DE NEMOURS AND COMPANY, priority 2007, published 2010).

What was measured:
kochia = experiment: Test C pre-/postemergence test; assay type: in vivo, Kochia scoparia; settings: for Plant response rating, Kochia: 31 g ai/ha, scale 0 to 100 (0 no effect, 100 complete control)
How it was run: (§1)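 Test chemicals were formulated with surfactant in a non-phytotoxic solvent and sprayed both on freshly planted seeds (preemergence) and on 1- to 4-leaf plants of 2–18 cm (postemergence). Flooded-paddy pots received compound directly into 3 cm of standing water, maintained for the test.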

yellow nutsedge = experiment: Test C pre-/postemergence test; assay type: in vivo, Cyperus esculentus; settings: for Plant response rating, Nutsedge, Yellow: 31 g ai/ha, scale 0 to 100 (0 no effect, 100 complete control)
How it was run: as §1

soybean = experiment: Test C pre-/postemergence test; assay type: in vivo, Glycine max; settings: for Plant response rating, Soybean: 31 g ai/ha, scale 0 to 100 (0 no effect, 100 complete control)
How it was run: as §1

catchweed bedstraw = experiment: Test C pre-/postemergence test; assay type: in vivo, Galium aparine
How it was run: as §1

rice = experiment: Test C flooded paddy test; assay type: in vivo, Oryza sativa; settings: Flood
How it was run: (§2)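 Compound was added to standing water 3 cm above soil, flood maintained, and plants held in a greenhouse before visual scoring against controls at 13 to 15 days.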

lambsquarters = experiment: Test C pre-/postemergence test; assay type: in vivo, Chenopodium album; settings: for Plant response rating, Lambsquarters: 31 g ai/ha, scale 0 to 100 (0 no effect, 100 complete control)
How it was run: as §1

woolly cupgrass = experiment: Test C pre-/postemergence test; assay type: in vivo, Eriochloa villosa; settings: for Plant response rating, Cupgrass, Woolly: 31 g ai/ha, scale 0 to 100 (0 no effect, 100 complete control)
How it was run: as §1

wild oat = experiment: Test C pre-/postemergence test; assay type: in vivo, Avena fatua; settings: for Plant response rating, Oat, Wild: 31 g ai/ha, scale 0 to 100 (0 no effect, 100 complete control)
How it was run: as §1

bermudagrass = experiment: Test C pre-/postemergence test; assay type: in vivo, Cynodon dactylon; settings: for Plant response rating, Bermudagrass: 31 g ai/ha
How it was run: as §1

downy brome = experiment: Test C pre-/postemergence test; assay type: in vivo, Bromus tectorum; settings: for Plant response rating, Bromegrass, Downy: 31 g ai/ha, scale 0 to 100 (0 no effect, 100 complete control)
How it was run: as §1

redroot pigweed = experiment: Test A pre-/postemergence greenhouse test; assay type: in vivo, Amaranthus retroflexus; settings: for Plant response rating, Pigweed: 0 to 100 scale where 0 is no effect and 100 is complete control; for Pigweed plant response rating: 0 to 100 scale
How it was run: (§3)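 Greenhouse herbicide screen, pre- and postemergence in parallel. Soil: loam plus sand. Formulation: non-phytotoxic solvent mix with surfactant. Postemergence stage: one to two leaves, 2–10 cm height. Evaluation: visual injury, compared with untreated controls, about 10 days after treatment.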

duck salad = experiment: Test C flooded paddy test; assay type: in vivo, Heteranthera limosa; settings: Flood
How it was run: as §2

green foxtail = experiment: Test C pre-/postemergence test; assay type: in vivo, Setaria viridis; settings: for Plant response rating, Foxtail, Green: 31 g ai/ha, scale 0 to 100 (0 no effect, 100 complete control)
How it was run: as §1

cocklebur = experiment: Test C pre-/postemergence test; assay type: in vivo, Xanthium strumarium; settings: for Plant response rating, Cocklebur: 31 g ai/ha, scale 0 to 100 (0 no effect, 100 complete control)
How it was run: as §1

morningglory = experiment: Test A pre-/postemergence greenhouse test; assay type: in vivo, Ipomoea spp.; settings: for Plant response rating, Morningglory: 0 to 100 scale where 0 is no effect and 100 is complete control; for Morningglory plant response rating: 0 to 100 scale
How it was run: as §3

blackgrass = experiment: Test C pre-/postemergence test; assay type: in vivo, Alopecurus myosuroides; settings: for Plant response rating, Blackgrass: 31 g ai/ha, scale 0 to 100 (0 no effect, 100 complete control)
How it was run: as §1

[1] = 62 g ai/ha, Preemergence, scale 0 to 100
[2] = 125 g ai/ha, preemergence, scale 0 (no effect) to 100 (complete control)
[3] = preemergence, 250 g ai/ha, scale 0 (no effect) to 100 (complete control)
[4] = 62 g ai/ha, scale 0 to 100 (0 no effect, 100 complete control)
[5] = 250 g ai/ha, scale 0 to 100, 0 no effect, 100 complete control, 13 to 15 days
[6] = 62 g ai/ha, Preemergence, scale 0 to 100 (0 no effect, 100 complete control)
[7] = Preemergence, scale 0 to 100 (0 no effect, 100 complete control)
[8] = Postemergence, 500 g ai/ha, 0 is no effect, 100 is complete control
[9] = Preemergence, 125 g ai/ha, 0 no effect, 100 complete control
[10] = Preemergence, 500 g ai/ha, 0 no effect, 100 complete control

Cn1nc(C(F)(F)C(F)(F)F)c(C[S+]([O-])c2ccc(Cl)c[n+]2[O-])c1OCC(F)(F)F (stereo not drawn) [Compound 92]
90: Nutsedge, Yellow plant response rating (yellow nutsedge; [1]) | Nutsedge, Yellow plant response rating (yellow nutsedge; [2]) | Plant response rating, Nutsedge, Yellow (yellow nutsedge; Preemergence) | Cupgrass, Woolly plant response rating (woolly cupgrass; [1]) | Oat, Wild plant response rating (wild oat; [2]) | Plant response rating, Foxtail, Green (green foxtail; Preemergence)
80: Soybean plant response rating (soybean; [3]) | Galium plant response rating (catchweed bedstraw; [1])
70: Bromegrass, Downy plant response rating (downy brome; [1]) | Plant response rating, Morningglory (morningglory; Postemergence, 125 g ai/ha)
85: Oat, Wild plant response rating (wild oat; [1]) | Bromegrass, Downy plant response rating (downy brome; [2]) | Plant response rating, Blackgrass (blackgrass; Preemergence)
30: Plant response rating, Rice (rice; [4])
100: Kochia plant response rating (kochia; [1]) | Kochia plant response rating (kochia; [2]) | Kochia plant response rating (kochia; [3]) | Nutsedge, Yellow plant response rating (yellow nutsedge; [3]) | Galium plant response rating (catchweed bedstraw; [3]) | Lambsquarters plant response rating (lambsquarters; [1]) | Lambsquarters plant response rating (lambsquarters; [2]) | Plant response rating, Lambsquarters (lambsquarters; Preemergence) | Lambsquarters plant response rating (lambsquarters; [3]) | Cupgrass, Woolly plant response rating (woolly cupgrass; [3]) | Oat, Wild plant response rating (wild oat; [3]) | Bermudagrass plant response rating (bermudagrass; [6]) | Bermudagrass plant response rating (bermudagrass; [2]) | Plant response rating, Bermudagrass (bermudagrass; [7]) | Bermudagrass plant response rating (bermudagrass; [3]) | Bromegrass, Downy plant response rating (downy brome; [3]) | Pigweed plant response rating (redroot pigweed; [8]) | Pigweed plant response rating (redroot pigweed; [9]) | Plant response rating, Pigweed (redroot pigweed; Preemergence, 500 g ai/ha) | Plant response rating, Ducksalad (duck salad; [5]) | Foxtail, Green plant response rating (green foxtail; [3]) | Morningglory plant response rating (morningglory; [8]) | Morningglory plant response rating (morningglory; [9]) | Plant response rating, Morningglory (morningglory; Preemergence, 500 g ai/ha) | Blackgrass plant response rating (blackgrass; [1]) | Blackgrass plant response rating (blackgrass; [2]) | Blackgrass plant response rating (blackgrass; [3])
60: Plant response rating, Oat, Wild (wild oat; Preemergence)
98: Cupgrass, Woolly plant response rating (woolly cupgrass; [2]) | Foxtail, Green plant response rating (green foxtail; [2])
0: Plant response rating, Soybean (soybean; Preemergence) | Cocklebur plant response rating (cocklebur; [1]) | Cocklebur plant response rating (cocklebur; [2]) | Plant response rating, Cocklebur (cocklebur; Preemergence)
95: Galium plant response rating (catchweed bedstraw; [2]) | Foxtail, Green plant response rating (green foxtail; [1])
50: Plant response rating, Kochia (kochia; Preemergence) | Plant response rating, Rice (rice; [5]) | Plant response rating, Bromegrass, Downy (downy brome; Preemergence) | Plant response rating, Pigweed (redroot pigweed; Postemergence, 125 g ai/ha)
55: Plant response rating, Ducksalad (duck salad; [4]) | Cocklebur plant response rating (cocklebur; [3])
65: Plant response rating, Cupgrass, Woolly (woolly cupgrass; Preemergence)

Cc1cc[n+]([O-])c(S(=O)(=O)Cc2c(C(F)(F)C(F)(F)F)nn(C)c2OCC(F)(F)F)c1 [Compound 99]
100: Kochia plant response rating (kochia; [1]) | Kochia plant response rating (kochia; [2]) | Plant response rating, Kochia (kochia; Preemergence) | Kochia plant response rating (kochia; [3]) | Galium plant response rating (catchweed bedstraw; [1]) | Galium plant response rating (catchweed bedstraw; [2]) | Plant response rating, Galium (catchweed bedstraw; Preemergence, 31 g ai/ha, scale 0 to 100 (0 no effect, 100 complete control)) | Galium plant response rating (catchweed bedstraw; [3]) | Lambsquarters plant response rating (lambsquarters; [1]) | Lambsquarters plant response rating (lambsquarters; [2]) | Plant response rating, Lambsquarters (lambsquarters; Preemergence) | Lambsquarters plant response rating (lambsquarters; [3]) | Bermudagrass plant response rating (bermudagrass; [6]) | Bermudagrass plant response rating (bermudagrass; [2]) | Bermudagrass plant response rating (bermudagrass; [3]) | Pigweed plant response rating (redroot pigweed; [9]) | Pigweed plant response rating (redroot pigweed; [10]) | Foxtail, Green plant response rating (green foxtail; [2]) | Foxtail, Green plant response rating (green foxtail; [3]) | Morningglory plant response rating (morningglory; [10]) | Blackgrass plant response rating (blackgrass; [1]) | Blackgrass plant response rating (blackgrass; [2]) | Blackgrass plant response rating (blackgrass; [3])
45: Plant response rating, Rice (rice; [5])
85: Cupgrass, Woolly plant response rating (woolly cupgrass; [3]) | Plant response rating, Bermudagrass (bermudagrass; [7])
25: Soybean plant response rating (soybean; [1])
65: Plant response rating, Ducksalad (duck salad; [5])
70: Cupgrass, Woolly plant response rating (woolly cupgrass; [2]) | Bromegrass, Downy plant response rating (downy brome; [3])
98: Soybean plant response rating (soybean; [3])
95: Oat, Wild plant response rating (wild oat; [2]) | Oat, Wild plant response rating (wild oat; [3])
80: Nutsedge, Yellow plant response rating (yellow nutsedge; [3]) | Oat, Wild plant response rating (wild oat; [1]) | Foxtail, Green plant response rating (green foxtail; [1]) | Plant response rating, Foxtail, Green (green foxtail; Preemergence) | Plant response rating, Blackgrass (blackgrass; Preemergence)
30: Soybean plant response rating (soybean; [2]) | Plant response rating, Oat, Wild (wild oat; Preemergence) | Plant response rating, Bromegrass, Downy (downy brome; Preemergence) | Cocklebur plant response rating (cocklebur; [3])
40: Plant response rating, Morningglory (morningglory; Postemergence, 125 g ai/ha)
60: Nutsedge, Yellow plant response rating (yellow nutsedge; [1]) | Nutsedge, Yellow plant response rating (yellow nutsedge; [2]) | Bromegrass, Downy plant response rating (downy brome; [2]) | Pigweed plant response rating (redroot pigweed; [8])
50: Bromegrass, Downy plant response rating (downy brome; [1]) | Morningglory plant response rating (morningglory; [8]) | Morningglory plant response rating (morningglory; [9])
10: Plant response rating, Pigweed (redroot pigweed; Postemergence, 125 g ai/ha)
0: Plant response rating, Nutsedge, Yellow (yellow nutsedge; Preemergence) | Plant response rating, Soybean (soybean; Preemergence) | Plant response rating, Rice (rice; [4]) | Cupgrass, Woolly plant response rating (woolly cupgrass; [1]) | Plant response rating, Cupgrass, Woolly (woolly cupgrass; Preemergence) | Plant response rating, Ducksalad (duck salad; [4]) | Cocklebur plant response rating (cocklebur; [1]) | Cocklebur plant response rating (cocklebur; [2]) | Plant response rating, Cocklebur (cocklebur; Preemergence)
